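Each compound was tested at five concentrations against cells in 96-well plates for 48 hours. TGI is the concentration that stops growth completely.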 Where a SMILES comes first, the peptide text is derived from it. The star is where a group is joined. Cbz = O=C(OCc1ccccc1)*; Boc = CC(C)(C)OC(=O)*; tBu = CC(C)(C)*
Key:
Test in all cases: growth of human tumour cells (NCI), 48 h
[1] = system: CCRF-CEM leukemia
[2] = system: HCC-2998 colon
[3] = system: LOX IMVI melanoma
[4] = system: MCF7 breast
[5] = system: MDA-MB-231 breast
[6] = system: MDA-N
[7] = system: PC-3 prostate
[8] = system: SK-MEL-2 melanoma
[9] = system: SNB-19 CNS
[10] = system: SR leukemia

Compound	TGI [1] [µM]	TGI [2] [µM]	TGI [3] [µM]	TGI [4] [µM]	TGI [5] [µM]	TGI [6] [µM]	TGI [7] [µM]	TGI [8] [µM]	TGI [9] [µM]	TGI [10] [µM]
CC(OC(C)(C)C)C(NC(=O)C(CCCCNC(=O)OC(C)(C)C)NC(=O)C(Cc1c[nH]c2ccccc12)NC(=O)C(Cc1ccccc1)NC(=O)OCc1ccccc1)C(=O)NC(Cc1ccccc1)C(=O)O (stereo not given) (Cbz-FWK(Boc)T(tBu)F-OH; configuration not given here)	> 100	> 100	> 100	> 100	> 100	> 100	> 100	92.8	52.8	> 100
Cc1ccc(NC(=O)c2cccc(OP(=O)(O)Nc3ccc(C)cc3)c2)cc1	> 100	> 100	> 100	> 100	> 100	> 100	> 100	> 100	> 100	> 100
Cc1cc(=O)n2nc(CN3CCCCC3)sc2n1	> 100	> 100	> 100	> 100	> 100	> 100	> 100	> 100	> 100	> 100
O=C(O)[C@@H]1CSCN1C(=O)[C@@H]1CCC(=S)N1	> 100	> 100	> 100	> 100	> 100	> 100	> 100	> 100	> 100	> 100
CN(/N=C/c1ccc(OCc2cccc(COc3ccc(C=O)cc3)n2)cc1)c1cnn(-c2ccc(Cl)cc2Cl)c(=O)c1Cl	> 100	> 100	> 100	> 100	> 100	> 100	> 100	> 100	> 100	> 100
CC12CCC([C@H](C(O)C3CCCCC3)C1=O)C2(C)C (stereo not given in full)	> 100	> 100	> 100	> 100	> 100	> 100	> 100	> 100	> 100	> 100
CCCCCCCCCCN(CCCCCCCCCC)C(=O)COc1c2cc(C(C)(C)C)cc1Cc1cc(C(C)(C)C)cc(c1OCC(=O)N(CCCCCCCCCC)CCCCCCCCCC)Cc1cc(C(C)(C)C)cc(c1OCC(=O)N(CCCCCCCCCC)CCCCCCCCCC)Cc1cc(C(C)(C)C)cc(c1OCC(=O)N(CCCCCCCCCC)CCCCCCCCCC)C2	14.1	22.3	23.7	6.95	33.2	24.9	21.8	20.4	22.1	6.06
CNc1nc2n(CCO)c(-c3ccccc3)c(-c3ccccc3)nc-2c(=O)n1	> 50	> 50	> 50	> 50	> 50	> 50	> 50	> 50	> 50	> 50
O=C(Cc1ccccc1)N/N=C/c1ccccc1O	> 100	> 100	> 100	> 100	> 100	> 100	> 100	> 100	> 100	> 100
C=C(CC[C@@H](C)[C@H]1CC[C@@]2(C)C3=C(CC[C@]12C)[C@@]1(C)CC[C@H](O)[C@@H](C)C1CC3)C(C)C (stereo not given in full)	2.22	2.7	2	2.69	2.74	2.33	2.28	2.93	4.45	2.71
CC(=NNC(=S)Nc1ccc(C)cc1)c1cccc(C(C)=NNC(=S)Nc2ccc(C)cc2)n1	> 100	> 100	91.7	> 100	> 100	> 100	> 100	> 100	> 100	27.1
c1ccc2c(c1)nc1n2CNC1	> 100	> 100	> 100	> 100	> 100	> 100	> 100	> 100	> 100	> 100
Cc1cccc2c(N)c3cccc(C(=O)NCC[N+](C)(C)Cc4c([N+](=O)[O-])ncn4C)c3nc12	> 100	> 95.7	35.6	> 47.3	> 82.1	> 100	> 100	> 100	> 100	> 100
CC(C)(C)c1ccc(-c2nc3ccc(Cl)cc3c(=O)o2)cc1	34.2	27.6	31	61.7	18.6	64	92.1	44.2	80.1	47.9
CC1=CC(=O)N(n2c(Cc3ccccc3)n[nH]c2=O)C1=O	62.7	> 100	> 100	> 100	> 100	> 100	> 100	> 100	> 100	> 100
COc1cc(/C=C2\N=C(c3ccccc3)N(c3nc4c(OC)ccc(OC)c4s3)C2=O)ccc1O	> 100	> 100	53.2	33.2	> 100	62	> 100	> 100	> 100	> 100

Reference: PubChem BioAssay (NCI)
